# Test results reported in ChEMBL document CHEMBL1201862, “PubChem BioAssay data set” (2004).
# The source made the active and inactive calls.
# Legend:
# [1] = microbe, parasite or virus in culture; type: functional; conditions: Mycobacterium tuberculosis
# [2] = cells; type: functional
# [3] = molecular target: T1, RNA-binding protein pos-1 (Caenorhabditis elegans, UniProt G5EF15); test: disruptors of C. elegans POS-1 RNA interaction – biochemical, fluorescence polarization, dose response (AID 1964);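 also: purified POS-1 fused to maltose binding protein made in E. coli; potency of compounds blocking POS-1 binding to fluorescent RNA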
# T1 sequence (G5EF15 whole entry): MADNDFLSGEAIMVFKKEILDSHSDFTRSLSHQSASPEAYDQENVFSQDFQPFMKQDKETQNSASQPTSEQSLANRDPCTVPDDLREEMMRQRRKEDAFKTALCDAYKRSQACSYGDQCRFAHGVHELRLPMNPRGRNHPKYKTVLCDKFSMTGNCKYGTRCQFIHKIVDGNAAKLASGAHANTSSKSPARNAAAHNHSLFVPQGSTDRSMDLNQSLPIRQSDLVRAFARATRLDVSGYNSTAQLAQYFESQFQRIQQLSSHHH
# [4] = molecular target: T2, Zinc finger protein mex-5 (Caenorhabditis elegans, UniProt Q9XUB2); test: potency of MEX-5 RNA-binding blockers – biochemical, C. elegans, fluorescence polarization, dose response (AID 1960)
# T2 sequence (Q9XUB2 whole entry): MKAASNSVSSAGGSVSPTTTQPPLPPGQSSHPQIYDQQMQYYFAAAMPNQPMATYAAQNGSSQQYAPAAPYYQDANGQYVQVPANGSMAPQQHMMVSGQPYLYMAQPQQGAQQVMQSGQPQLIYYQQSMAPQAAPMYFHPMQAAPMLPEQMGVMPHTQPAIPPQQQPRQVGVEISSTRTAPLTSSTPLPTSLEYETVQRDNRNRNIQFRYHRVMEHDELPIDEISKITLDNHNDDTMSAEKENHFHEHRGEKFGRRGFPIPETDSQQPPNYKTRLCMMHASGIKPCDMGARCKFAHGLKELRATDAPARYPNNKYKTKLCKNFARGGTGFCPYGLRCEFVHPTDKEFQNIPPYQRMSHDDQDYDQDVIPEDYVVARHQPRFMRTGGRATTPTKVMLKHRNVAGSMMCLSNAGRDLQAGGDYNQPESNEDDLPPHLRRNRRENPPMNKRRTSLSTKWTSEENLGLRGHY
# [5] = molecular target: T3, Leucine aminopeptidase (Plasmodium falciparum 3D7, UniProt Q8IL11); test: P. falciparum M17LAP inhibitors, primary screen, biochemical, fluorogenic H-Leu-NHMec substrate, 1536-well (AID 1619); type: functional
# T3 sequence (Q8IL11 whole entry): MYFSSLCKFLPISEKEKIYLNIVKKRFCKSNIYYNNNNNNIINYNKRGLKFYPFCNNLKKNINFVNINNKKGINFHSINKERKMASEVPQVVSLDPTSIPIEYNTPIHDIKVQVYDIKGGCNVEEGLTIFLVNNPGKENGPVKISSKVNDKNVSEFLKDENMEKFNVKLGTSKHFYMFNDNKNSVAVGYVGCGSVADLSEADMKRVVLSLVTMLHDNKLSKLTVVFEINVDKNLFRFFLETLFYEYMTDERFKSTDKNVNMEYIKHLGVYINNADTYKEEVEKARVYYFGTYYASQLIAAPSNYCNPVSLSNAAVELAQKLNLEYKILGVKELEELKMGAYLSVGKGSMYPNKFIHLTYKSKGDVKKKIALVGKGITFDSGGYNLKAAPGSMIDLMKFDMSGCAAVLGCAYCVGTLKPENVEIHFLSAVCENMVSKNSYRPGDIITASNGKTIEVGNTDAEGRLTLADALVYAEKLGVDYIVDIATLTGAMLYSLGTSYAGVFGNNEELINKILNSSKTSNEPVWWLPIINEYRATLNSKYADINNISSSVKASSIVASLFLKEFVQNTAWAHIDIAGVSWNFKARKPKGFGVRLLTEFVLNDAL
# [6] = viability of PTEN-deleted HCT116 cells – cell-based, HCT116 PTEN knockout, dose response (AID 1047); type: functional;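 also: HCT116 colon tumor cells with PTEN knocked out; cells exposed to compound for 60 hours before readout; potency for loss of cell viability measured by luminescence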
# [7] = viability of HCT116 lacking mutant beta-catenin – cell-based, human colon tumor, dose response (AID 1045); type: functional;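 also: HCT116 colon tumor cells with beta catenin knocked out; cells exposed to compound for 60 hours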
# [8] = molecular target: Cytochrome P450 2D6 (Homo sapiens, UniProt P10635);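 also: CYP2D6 member of a cytochrome P450 panel assay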
# Sequence of Cytochrome P450 2D6 (P10635 whole entry): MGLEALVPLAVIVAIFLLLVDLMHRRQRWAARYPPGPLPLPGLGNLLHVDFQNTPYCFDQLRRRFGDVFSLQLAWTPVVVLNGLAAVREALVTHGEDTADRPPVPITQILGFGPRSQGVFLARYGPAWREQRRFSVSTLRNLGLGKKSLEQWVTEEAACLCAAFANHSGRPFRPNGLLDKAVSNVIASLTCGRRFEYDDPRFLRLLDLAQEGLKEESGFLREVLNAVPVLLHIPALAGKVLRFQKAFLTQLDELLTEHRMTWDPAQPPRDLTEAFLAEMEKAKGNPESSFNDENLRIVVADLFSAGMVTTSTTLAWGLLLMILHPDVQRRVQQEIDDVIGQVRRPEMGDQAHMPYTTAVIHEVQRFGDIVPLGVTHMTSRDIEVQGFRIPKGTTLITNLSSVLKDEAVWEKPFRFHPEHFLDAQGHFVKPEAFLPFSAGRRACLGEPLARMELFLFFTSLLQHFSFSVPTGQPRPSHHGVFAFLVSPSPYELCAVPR
# [9] = test system: Streptococcus sp. 'group A'; test: Streptococcus pyogenes SK(-)GAS viability under kanamycin – luminescence, BacTiterGlo, confirmation, counter-screen for streptokinase expression inhibitor project, dose response (AID 1900); type: functional, organism-based
# [10] = Trypanosoma cruzi growth suppression in host cells – NIH3T3 host cells, beta-gal luminescence, confirmation (AID 2044); type: functional, cell-based;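 also: intracellular parasites grown in NIH/3T3 mouse fibroblasts as host cells; luminescent beta-galactosidase reporter signal from transgenic T. cruzi replicating inside host cells; inhibitors lower the luminescence signal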
# [11] = NIH3T3 cell viability loss – ATP luminescence, mouse fibroblasts, counter-screen, dose response (AID 2010); type: functional, cell-based;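 also: cells exposed to compound for about 90 hours before reading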
# [12] = test system: Streptococcus; test: GAS UMAA2166 growth inhibition – luminescence, BacTiterGlo, counter-screen for streptokinase expression inhibitor project, dose response (AID 1915); type: functional, organism-based;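 also: potency for reduction of bacterial viability or growth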
# [13] = molecular target: T4, Replicative DNA helicase DnaB (Mycobacterium tuberculosis, UniProt P9WMR3); test: DnaB intein splicing inhibitors, dose response, biochemical, cell-free fluorescence (AID 449749); type: functional
# T4 sequence (P9WMR3 whole entry): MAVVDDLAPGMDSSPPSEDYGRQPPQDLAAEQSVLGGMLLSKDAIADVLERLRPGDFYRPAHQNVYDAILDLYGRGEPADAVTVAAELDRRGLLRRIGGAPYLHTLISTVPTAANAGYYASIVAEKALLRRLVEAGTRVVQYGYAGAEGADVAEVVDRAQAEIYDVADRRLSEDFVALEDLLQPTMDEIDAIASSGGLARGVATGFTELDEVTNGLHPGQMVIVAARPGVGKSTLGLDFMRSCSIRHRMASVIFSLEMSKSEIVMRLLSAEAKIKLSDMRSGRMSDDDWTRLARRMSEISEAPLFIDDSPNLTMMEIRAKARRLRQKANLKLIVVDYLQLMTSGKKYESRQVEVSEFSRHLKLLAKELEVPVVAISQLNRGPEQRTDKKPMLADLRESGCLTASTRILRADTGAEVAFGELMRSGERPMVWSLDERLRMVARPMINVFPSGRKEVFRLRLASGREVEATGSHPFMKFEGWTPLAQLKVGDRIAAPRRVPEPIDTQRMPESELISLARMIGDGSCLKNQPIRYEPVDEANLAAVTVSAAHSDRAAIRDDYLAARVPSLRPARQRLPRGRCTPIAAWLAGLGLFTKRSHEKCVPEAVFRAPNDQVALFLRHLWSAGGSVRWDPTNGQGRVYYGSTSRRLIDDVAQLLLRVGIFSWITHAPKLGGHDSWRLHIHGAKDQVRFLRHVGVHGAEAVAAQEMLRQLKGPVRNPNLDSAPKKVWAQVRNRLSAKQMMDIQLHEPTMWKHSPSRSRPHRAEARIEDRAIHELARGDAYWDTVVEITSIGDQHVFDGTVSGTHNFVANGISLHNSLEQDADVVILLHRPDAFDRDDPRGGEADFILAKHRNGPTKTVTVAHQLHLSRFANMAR
# [14] = molecular target: T5, Protein RecA (Mycobacterium tuberculosis, UniProt P9WHJ3); test: Fluorescence Cell-Free Homogeneous Dose Retest to Identify Inhibitors of RecA-Intein Splicing Activity. [Related pubchem assays (depositor defined):AID2097, AID2223, AID489010, AID492950]; type: functional
# T5 sequence (P9WHJ3 whole entry): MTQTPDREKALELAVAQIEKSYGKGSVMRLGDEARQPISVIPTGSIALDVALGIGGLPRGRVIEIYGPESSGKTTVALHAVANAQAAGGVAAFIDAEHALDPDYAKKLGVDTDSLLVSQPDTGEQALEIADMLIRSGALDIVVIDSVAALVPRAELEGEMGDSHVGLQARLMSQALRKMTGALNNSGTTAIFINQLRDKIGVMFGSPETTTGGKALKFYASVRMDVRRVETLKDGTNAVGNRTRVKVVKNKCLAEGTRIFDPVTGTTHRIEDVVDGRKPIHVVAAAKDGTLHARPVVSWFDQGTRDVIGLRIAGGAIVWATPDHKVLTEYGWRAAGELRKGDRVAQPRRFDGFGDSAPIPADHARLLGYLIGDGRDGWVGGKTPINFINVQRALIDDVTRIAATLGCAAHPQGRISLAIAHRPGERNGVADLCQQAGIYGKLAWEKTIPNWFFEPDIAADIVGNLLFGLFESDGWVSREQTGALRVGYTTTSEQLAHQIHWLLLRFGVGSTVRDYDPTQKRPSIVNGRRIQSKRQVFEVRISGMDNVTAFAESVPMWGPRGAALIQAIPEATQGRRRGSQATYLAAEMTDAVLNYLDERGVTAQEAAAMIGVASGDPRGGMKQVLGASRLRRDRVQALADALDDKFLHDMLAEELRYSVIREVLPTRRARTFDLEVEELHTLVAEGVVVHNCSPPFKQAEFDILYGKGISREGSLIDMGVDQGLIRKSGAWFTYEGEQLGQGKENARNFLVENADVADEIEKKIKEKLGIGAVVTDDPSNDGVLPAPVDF
# [15] = molecular target: T6, Streptokinase A (Streptococcus pyogenes serotype M1, UniProt P10520); test: viability-normalized secreted streptokinase activity reduction – plasminogen activation absorbance, OD405, dose response (AID 1914); type: functional, Streptococcus pyogenes M1 GAS;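 also: secreted streptokinase activity via plasminogen activation per viability signal from cell pellet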
# T6 sequence (P10520 whole entry): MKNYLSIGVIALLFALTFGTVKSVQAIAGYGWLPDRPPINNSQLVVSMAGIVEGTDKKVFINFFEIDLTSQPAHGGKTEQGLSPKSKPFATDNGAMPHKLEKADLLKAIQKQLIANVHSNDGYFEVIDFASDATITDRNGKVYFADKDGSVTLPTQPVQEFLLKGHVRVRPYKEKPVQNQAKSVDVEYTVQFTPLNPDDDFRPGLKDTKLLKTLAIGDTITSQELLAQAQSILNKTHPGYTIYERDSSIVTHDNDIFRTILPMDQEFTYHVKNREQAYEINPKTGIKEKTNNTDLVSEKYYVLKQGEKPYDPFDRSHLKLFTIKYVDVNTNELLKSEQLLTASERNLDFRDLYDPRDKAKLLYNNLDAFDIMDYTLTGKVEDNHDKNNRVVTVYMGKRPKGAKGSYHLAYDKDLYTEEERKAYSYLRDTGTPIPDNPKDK
smiles,measurement,setting,value
O=C(CNC(=O)c1ccco1)OCc1ccc(C(=O)Oc2ccccc2)cc1,CC50,[1],> 40 µM (active)
same,IC50,[2],11.7 µM (active)
CCOc1ccc(N/C(=C(/C(Cl)=C(Cl)Cl)[N+](=O)[O-])n2cncn2)cc1,EC50,[3],46.9 µM (active)
same,EC50,[4],45.4 µM (active)
COc1ccc(NC(=O)CSc2nnc(NC(=O)c3ccccc3C(=O)O)s2)cc1,IC50,[5],6.27 µM (active)
CC1=C(C#N)C(=O)OC(C)(C)C1,EC50,[3],10.8 µM (active)
same,EC50,[4],10.1 µM (active)
CCC1(c2ccccc2)NC(=O)N(CC(=O)NCc2ccc(F)cc2)C1=O (stereo not given),EC50,[3],> 300 µM (not active)
same,EC50,[4],> 300 µM (not active)
Cc1ccc(P(=O)(CSC(=N)N)c2ccc(C)cc2)cc1,EC50,[6],30.7 µM (active)
same,EC50,[7],25.4 µM (active)
COc1ccccc1C(=O)NNC(=O)C(=O)NCc1ccccc1,CC50,[1],> 40 µM (active)
S=C1NC(c2ccccc2)N2C(=S)NC(c3ccccc3)N12 (stereo not given),IC50,[5],20.9 µM (active)
O=C1CC(SC(=Nc2ccccc2)Nc2ccccc2)C(=O)N1c1cccc(Cl)c1 (stereo not given),EC50,[6],24.5 µM (active)
same,EC50,[7],33.2 µM (active)
same,AC50,[8],10 µM (inconclusive)
CCOC(=O)c1cnn2cc(-c3[nH]ncc3[N+](=O)[O-])cnc12,IC50,[5],5.26 µM (active)
O=C(c1ccco1)N1CCN(c2ncnc3c(-c4ccc(Cl)cc4)nsc23)CC1,EC50,[3],> 300 µM (not active)
same,EC50,[4],> 300 µM (not active)
CCCCn1c(=N)n(CC(O)COc2ccc(C)cc2)c2ccccc21 (stereo not given),EC50,[6],6.43 µM (active)
same,EC50,[7],6.36 µM (active)
COc1ccc(NC(=O)Nc2ccc3oc(C)nc3c2)cc1,IC50,[5],14.8 µM (active)
CN1C(=O)C(O)(CC(=O)c2ccc(F)cc2)c2cc(Br)ccc21 (stereo not given),EC50,[6],19.1 µM (active)
same,EC50,[7],15.7 µM (active)
CCCCC1=CC2=CC(=O)C(C)(OC(=O)CCC(=O)OC)C(=O)C2=CO1 (stereo not given),EC50,[3],30 µM (active)
same,EC50,[4],26.6 µM (active)
O=C(N/N=C/c1ccc(Br)s1)c1cccs1,CC50,[1],33.3 µM (active)
O=C(N/N=C/c1ccc([N+](=O)[O-])o1)c1cc(-c2cccc(Br)c2)nc2ccccc12,EC50,[9],0.398 µM (active)
same,EC50,[10],0.128 µM (active)
same,EC50,[6],7.92 µM (active)
same,EC50,[11],> 60 µM (not active)
same,EC50,[7],7.86 µM (active)
same,EC50,[12],0.796 µM (active)
Cc1cc(N/N=C2/CCCc3ccccc32)nc2ccccc12,CC50,[1],> 40 µM (active)
CCCN1C(=O)/C(=C/c2ccc(C)o2)S/C1=N/c1ccc(OC)cc1,EC50,[3],44.6 µM (active)
same,EC50,[4],103 µM (inconclusive)
CC(/C=N/NC(=O)Cc1cc(O)[nH]n1)=C\c1ccccc1,IC50,[5],72.4 µM (active)
same,AC50,[13],2.53 µM (active)
same,EC50,[14],0.935 µM (active)
COc1cccc(/C=N/NC(=O)CC2C(=O)NN=C2C)c1OC (stereo not given),IC50,[5],23.5 µM (active)
Cc1nn(-c2ccccc2)c(C)c1/C=N/NC(=O)c1cc(-c2cccc3ccccc23)[nH]n1,EC50,[9],18.6 µM (active)
same,EC50,[15],> 150 µM (not active)
same,CC50,[1],30.5 µM (active)
same,EC50,[12],89.4 µM (active)
C/C(=N\Nc1ccc([N+](=O)[O-])cc1[N+](=O)[O-])c1cc2c(ccc3ccccc32)oc1=O,EC50,[3],> 300 µM (not active)
same,EC50,[4],> 300 µM (not active)
O=C(/N=C1\SC2CS(=O)(=O)CC2N1c1ccccc1)C1CC1 (stereo not given),EC50,[3],> 300 µM (not active)
same,EC50,[4],> 300 µM (inconclusive)
O=C(N/N=C/c1ccc(F)c(F)c1)c1cc2c(s1)-c1ccccc1CC2,EC50,[6],22.4 µM (active)
same,EC50,[7],21.2 µM (active)
